The text below walks through data of BindingDB's records for patent US10766864 (Nektar Therapeutics, 2020).

A word on the IC50: it is the concentration at which inhibition is half-maximal.

The assay addresses Mu-type opioid receptor (Homo sapiens, UniProt P35372). The assay is described as follows: Receptor Binding Assay. The method, then:
Affinities of various compounds were measured in vitro using competitive radioligand binding assays. Serial dilutions of test compounds were incubated with membranes prepared from CHO-K1 cells expressing the mu opioid receptor (MOR; for opioid receptor binding) or rat forebrain membranes (for NMDA receptor binding). 2 nM [3H] Naloxone (MOR) or 0.2 nM [3H] MK801 (NMDA) were used as the specific, competitive radioligands. 10 uM Naloxone (MOR), or 10 uM MK801 (NMDA) was used to determine non-specific binding. Bound radioactivity was measured using a scintillation counter & IC50 values for test compounds were determined by non-linear regression analysis using a one-site competition model (Graph Pad Prizm). Due to each test compound being solubilized in a buffered system for the assay, the results presented herein reflect the free base activity.

Mu-type opioid receptor, sequence (P35372 whole entry): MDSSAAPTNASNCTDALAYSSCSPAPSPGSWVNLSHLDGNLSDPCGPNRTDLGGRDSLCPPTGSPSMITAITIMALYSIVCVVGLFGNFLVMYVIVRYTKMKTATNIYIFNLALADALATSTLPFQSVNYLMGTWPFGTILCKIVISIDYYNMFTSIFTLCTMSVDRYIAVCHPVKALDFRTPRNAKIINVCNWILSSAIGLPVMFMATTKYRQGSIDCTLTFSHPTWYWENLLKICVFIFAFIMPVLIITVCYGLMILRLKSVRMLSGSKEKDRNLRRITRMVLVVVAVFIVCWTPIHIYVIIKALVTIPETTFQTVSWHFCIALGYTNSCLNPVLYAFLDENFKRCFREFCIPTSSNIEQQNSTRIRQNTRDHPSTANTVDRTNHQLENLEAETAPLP

Molecule `COCCOCCN1CC[C@]23CCCC[C@H]2[C@H]1Cc1cc2sc(N)nc2cc13` [US10766864, Example 97] displayed an IC50 of over 1000 nM.
